Assay results taken from patent US20240215577A1, “FUNGICIDAL PYRIDONES” (FMC Corporation, priority 2021, published 2024).

What was measured:
Format in all cases: in vivo
[1] = tested on: Botrytis cinerea; test: Test E: tomato Botrytis, preventive spray on tomato seedlings; details: 100 = 100% disease control, 0 = no control; for pest or weed control at 50 ppm: Botrytis cinerea, read-out: Test E disease control rating
Text: (§1) General protocol for preparing test suspensions for Tests A-F: the test compounds were first dissolved in acetone in an amount equal to 3% of the final volume and then suspended at the desired concentration (in ppm) in acetone and purified water (50/50 mix by volume) containing 250 ppm of the surfactant PEG400 (polyhydric alcohol esters). The resulting test suspensions were then used in Tests A-F.
(§2) The test suspension was sprayed to the point of run-off on tomato seedlings. The following day the seedlings were inoculated with a spore suspension of Botrytis cinerea (the causal agent of tomato Botrytis) and incubated in a saturated atmosphere at 20° C. for 48 h, and then moved to a growth chamber at 24° C. for 3 days, after which time visual disease ratings were made.
(§3) A rating of 100 indicates 100% disease control and a rating of 0 indicates no disease control (relative to the controls). A dash (-) indicates the compound was not tested.

[2] = tested on: Alternaria solani; test: Test F: tomato early blight, preventive spray on tomato seedlings; details: 100 = 100% disease control, 0 = no control; for pest or weed control at 50 ppm: Alternaria solani, read-out: Test F disease control rating
Text: as §1
as §2, with “Alternaria solani” for “Botrytis cinerea”, “early blight)” for “Botrytis)”, “27°” for “20°”, “20°” for “24°”
as §3

[3] = tested on: Puccinia recondita f. sp. tritici; test: Test B: wheat leaf rust, preventive spray on wheat seedlings; details: 100 = 100% disease control, 0 = no control; for pest or weed control at 50 ppm: Puccinia recondita, read-out: Test B disease control rating
Text: as §1
(§4) The test solution was sprayed to the point of run-off on wheat seedlings. The following day the seedlings were inoculated with a spore suspension of Puccinia recondita f. sp. tritici (the causal agent of wheat leaf rust) and incubated in a saturated atmosphere at 20° C. for 24 h, and then moved to a growth chamber at 20° C. for 7 days, after which time visual disease ratings were made.
as §3

[4] = tested on: Zymoseptoria tritici; test: Test A: wheat leaf blotch, preventive spray on wheat seedlings; details: 100 = 100% disease control, 0 = no control; for pest or weed control at 50 ppm: Zymoseptoria tritici, read-out: Test A disease control rating
Text: as §1
The test solution was sprayed to the point of run-off on wheat seedlings. The following day the seedlings were inoculated with a spore suspension of Zymoseptoria tritici (the causal agent of wheat leaf blotch) and incubated in a saturated atmosphere at 24° C. for 48 h, and then moved to a growth chamber at 20° C. for 17 days, after which time disease ratings were made.
as §3

[5] = tested on: Phakopsora pachyrhizi; test: Test D: Asian soybean rust, preventive spray on soybean seedlings; details: 100 = 100% disease control, 0 = no control; for pest or weed control at 50 ppm: Phakopsora pachyrhizi, 216 h, read-out: Test D disease control rating
Text: as §1
as §4, with “soybean” for “wheat”, “Phakopsora pachyrhizi” for “Puccinia recondita f. sp. tritici”, “Asian soybean” for “wheat leaf”, “22°” for “20°”, “h” for “h,”, “8” for “7”
as §3

[6] = tested on: Blumeria graminis f. sp. tritici; test: Test C: wheat powdery mildew, preventive spray on wheat seedlings; details: 100 = 100% disease control, 0 = no control; for pest or weed control at 50 ppm: Blumeria graminis, read-out: Test C disease control rating
Text: as §1
The test suspension was sprayed to the point of run-off on wheat seedlings. The following day the seedlings were inoculated with a spore dust of Blumeria graminis f. sp. tritici, (also known as Eysiphe graminis f. sp. tritici, the causal agent of wheat powdery mildew) and incubated in a growth chamber at 20° C. for 8 days, after which time visual disease ratings were made.
as §3

Structure (SMILES)	Test E disease control rating ([1]; 50 ppm)	Test F disease control rating ([2]; 50 ppm)	Test B disease control rating ([3]; 50 ppm)	Test A disease control rating ([4]; 50 ppm)	Test D disease control rating ([5]; 50 ppm)	Test C disease control rating ([6]; 50 ppm)	other results
Cn1cc(-c2cc(F)ccc2F)c(-c2ccc(F)cc2Cl)c(Cl)c1=O [Compound 24]	85%	0%	96%	96%	0%	0%	
COc1cc(OC)cc(-c2cn(C)c(=O)c(Cl)c2-c2ccc(F)cc2F)c1 [Compound 25]	82%	99%	100%	100%	84%	0%	
Cn1cc(-c2cc(F)c(F)cc2F)c(-c2ccc(F)cc2Cl)c(Cl)c1=O [Compound 26]	83%	0%	86%	99%	0%	0%	
Cn1cc(-c2ccccc2C(F)(F)F)c(-c2ccc(F)cc2Cl)c(Cl)c1=O [Compound 27]	58%	0%	100%	98%	25%	0%	
COc1ccc(F)c(-c2cn(C)c(=O)c(Cl)c2-c2ccc(F)cc2Cl)c1 [Compound 28]	98%	99%	100%	100%	87%	97%	
COc1ccc(Cl)c(-c2cn(C)c(=O)cc2-c2ccc(F)cc2Cl)c1 [Compound 31]	99%	0%	96%	96%	0%	0%	
COc1ccc(Cl)c(-c2cn(C)c(=O)c(Cl)c2-c2ccc(F)cc2Cl)c1 [Compound 32, 3-chloro-4-(2-chloro-4-fluorophenyl)-5-(2-chloro-5-methoxyphenyl)-1-methyl-2(1H)-pyridinone]							pest or weed control at 50 ppm ([1]; 50 ppm): 100%; pest or weed control at 50 ppm ([2]; 50 ppm): 100%; pest or weed control at 50 ppm ([3]; 50 ppm): 100%; pest or weed control at 50 ppm ([4]; 50 ppm): 100%; pest or weed control at 50 ppm ([5]; 50 ppm): 99%; pest or weed control at 50 ppm ([6]; 50 ppm): 99%
COc1ccc(Cl)c(-c2cn(C)c(=O)c(Br)c2-c2ccc(F)cc2Cl)c1 [Compound 33, 3-bromo-4-(2-chloro-4-fluorophenyl)-5-(2-chloro-5-methoxyphenyl)-1-methyl-2(1H)-pyridinone]							pest or weed control at 50 ppm ([1]; 50 ppm): 100%; pest or weed control at 50 ppm ([2]; 50 ppm): 100%; pest or weed control at 50 ppm ([3]; 50 ppm): 100%; pest or weed control at 50 ppm ([4]; 50 ppm): 100%; pest or weed control at 50 ppm ([5]; 50 ppm): 89%; pest or weed control at 50 ppm ([6]; 50 ppm): 99%
Cn1cc(-c2cc(F)ccc2Cl)c(-c2ccc(F)cc2Cl)cc1=O [Compound 34]	98%	0%	68%	100%	59%	48%	
COc1cc(OC)c(Cl)c(-c2cn(OCC#N)c(=O)c(Cl)c2-c2ccc(F)cc2Cl)c1 [Compound 35]	94%	0%	100%	84%	92%	73%	
C#CCOn1cc(-c2cc(OC)cc(OC)c2Cl)c(-c2ccc(F)cc2Cl)c(Cl)c1=O [Compound 36, 3-chloro-5-(2-chloro-3,5-dimethoxyphenyl)-4-(2-chloro-4-fluorophenyl)-1-(2-propynyloxy)-2(1H)-pyridinone]							pest or weed control at 50 ppm ([1]; 50 ppm): 96%; pest or weed control at 50 ppm ([2]; 50 ppm): 0%; pest or weed control at 50 ppm ([3]; 50 ppm): 99%; pest or weed control at 50 ppm ([4]; 50 ppm): 98%; pest or weed control at 50 ppm ([5]; 50 ppm): 96%; pest or weed control at 50 ppm ([6]; 50 ppm): 0%
COc1cc(OC)c(Cl)c(-c2cn(OCC(F)F)c(=O)c(Cl)c2-c2ccc(F)cc2Cl)c1 [Compound 37]	88%	0%	99%	68%	87%	0%	
COc1cc(OC)c(Cl)c(-c2cn(OC(F)F)c(=O)c(Cl)c2-c2ccc(F)cc2Cl)c1 [Compound 38, 3-chloro-5-(2-chloro-3,5-dimethoxyphenyl)-4-(2-chloro-4-fluorophenyl)-1-(difluoromethoxy)-2(1H)-pyridinone]							pest or weed control at 50 ppm ([1]; 50 ppm): 96%; pest or weed control at 50 ppm ([2]; 50 ppm): 0%; pest or weed control at 50 ppm ([3]; 50 ppm): 100%; pest or weed control at 50 ppm ([4]; 50 ppm): 96%; pest or weed control at 50 ppm ([5]; 50 ppm): 75%; pest or weed control at 50 ppm ([6]; 50 ppm): 73%
COc1cc(OC)c(Cl)c(-c2cn(O)c(=O)c(Cl)c2-c2ccc(F)cc2Cl)c1 [Compound 39, 3-chloro-5-(2-chloro-3,5-dimethoxyphenyl)-4-(2-chloro-4-fluorophenyl)-1-hydroxy-2(1H)-pyridinone]							pest or weed control at 50 ppm ([1]; 50 ppm): 56%; pest or weed control at 50 ppm ([2]; 50 ppm): 0%; pest or weed control at 50 ppm ([3]; 50 ppm): 86%; pest or weed control at 50 ppm ([4]; 50 ppm): 69%; pest or weed control at 50 ppm ([5]; 50 ppm): 77%; pest or weed control at 50 ppm ([6]; 50 ppm): 0%
Cn1cc(-c2cc(F)ccc2Cl)c(-c2ccc(F)cc2F)c(Cl)c1=O [Compound 40]	94%	99%	100%	100%	92%	98%	
Cn1cc(-c2ccc(F)cc2F)c(-c2ccc(F)cc2F)c(Cl)c1=O [Compound 41]	91%	91%	96%	100%	69%	96%	
Cn1cc(-c2ccc(F)cc2Cl)c(-c2ccc(F)cc2F)c(Cl)c1=O [Compound 42]	94%	93%	99%	100%	73%	93%	
COc1ccc(Cl)c(-c2cn(C)c(=O)c(C)c2-c2ccc(F)cc2Cl)c1 [Compound 43, 4-(2-chloro-4-fluorophenyl)-5-(2-chloro-5-methoxyphenyl)-1,3-dimethyl-2(1H)-pyridinone]							pest or weed control at 50 ppm ([1]; 50 ppm): 98%; pest or weed control at 50 ppm ([2]; 50 ppm): 100%; pest or weed control at 50 ppm ([3]; 50 ppm): 100%; pest or weed control at 50 ppm ([4]; 50 ppm): 100%; pest or weed control at 50 ppm ([5]; 50 ppm): 97%; pest or weed control at 50 ppm ([6]; 50 ppm): 100%
Cn1c(Cl)c(-c2ccc(F)cc2Cl)c(-c2c(F)cccc2F)c(Cl)c1=O [Compound 44]	40%	0%	93%	98%	96%	79%	
CCOn1cc(-c2cc(OC)cc(OC)c2)c(-c2ccc(F)cc2Cl)c(Cl)c1=O [Compound 45]							Test E disease control rating ([1]; 250 ppm): 97%; Test F disease control rating ([2]; 250 ppm): 0%; Test B disease control rating ([3]; 250 ppm): 91%; Test A disease control rating ([4]; 250 ppm): 100%; Test D disease control rating ([5]; 250 ppm): 0%; Test C disease control rating ([6]; 250 ppm): 72%
CCOn1cc(-c2cc(OC)cc(OC)c2Cl)c(-c2ccc(F)cc2Cl)c(Cl)c1=O [Compound 46]							Test E disease control rating ([1]; 250 ppm): 88%; Test F disease control rating ([2]; 250 ppm): 47%; Test B disease control rating ([3]; 250 ppm): 100%; Test A disease control rating ([4]; 250 ppm): 99%; Test D disease control rating ([5]; 250 ppm): 99%; Test C disease control rating ([6]; 250 ppm): 92%
